Measured values as given in patent US10183944B2 (Asana Biosciences, LLC, priority 2011, dated 2019).
Where “and” joins values, the source holds several entries; their conditions need not be identical. Equal entries are not always repeated. Marks after values point to notes of the source that are not given here.

Tested on: Arthus reaction in female c57BL/6 mice
Experiment: In vivo acute study: Arthus reaction model in mice
Set-up: species or system mouse
Conditions: for OD % Inhibition: dye extravasation (OD 610 nm)
Description: Arthus reaction is a type of local type III hypersensitivity reaction. Type III hypersensitivity reactions are immune complex-mediated, and involve the deposition of antigen/antibody complexes mainly in the vascular walls, serosa (pleura, pericardium, synovium), and glomeruli. This involves formation of antigen/antibody complexes after the intradermal injection of an antibody. If the animal was previously injected with antigen and dye (has circulating antigen), an Arthus reaction occurs. This manifests as local vasculitis due to deposition of immune complexes in dermal blood vessels. Activation of complement and recruitment of PMNs ensue, resulting in an inflammatory response and extravasation of dye to the skin. Compounds which can inhibit this complex process can have therapeutic implications in wide range of inflammatory and auto-immune disorders. See, Pine, “Inflammation and bone erosion are suppressed in models of rheumatoid arthritis following treatment with a novel Syk inhibitor”; Clin. Immunol. (2007) 124 (3): 244-57; and Sylvia, “R-406, an Orally Available Spleen Tyrosine Kinase Inhibitor Blocks Fc Receptor Signaling and Reduces Immune Complex-Mediated Inflammation”, JPET 319:998-1008, 2006, which are herein incorporated by reference.
Female c57BL/6 mice were given an antigen injection in which the antigen was 0.1% Ovalbumin (OVA) in PBS containing 1% Evans blue (EB) at the concentration of 10 mL/kg intravenously under Isoflurane anesthesia [2.5 mg/mouse with a body weight of 25 g]. Ten minutes after antigen injection; the animals were injected with the rabbit anti-OVA IgG (50 μg in 25 μL/site) (Polysciences; Cat #23744) intradermally on the shaved back at two top locations. Animals were also injected with phosphate buffered saline (PBS, 25 μL) intradermally on the back at two bottom and opposite locations to serve as negative control. The mice were euthanized by cervical dislocation 4 hours after antigen (Ovalbumin) challenge. Skin tissue was assessed for edema by tracing the edema area on to a transparent plastic sheet. Punch biopsies of the injection sites were collected.
Edema area was measured manually by scale. Two diameters were taken and averaged for each animal.
Punch biopsies of the injection sites (using 10 mm skin biopsy punches) were incubated in 2 mL of sodium sulfate: acetone mixture (0.6+1.4 mL) at room temperature for 16-18 hours. The supernatants were removed from digested tissues by centrifuging at 4000 rpm for 10 minutes, filtered and were read spectrophotometrically at 610 nm.
The percent inhibition of dye leakage was calculated with respect to control by the formula: […]
The percent inhibition of edema area was calculated with respect to control by the formula: […]
Means of different groups were compared with control using One way ANOVA followed by Dunnett's test. Significance was represented as follows.

O=C(O)C1CCN(c2ccc(Nc3nc(-c4ccccc4)nc4cn[nH]c(=O)c34)cc2)CC1 [Example 13, 1-(4-(5-oxo-2-phenyl-5,6-dihydropyrimido[4,5-d]pyridazin-4-ylamino)phenyl)piperidine-4-carboxylic acid]
Edema area % Inhibition (dose 10 mg/Kg): 53*** %
Edema area % Inhibition (dose 30 mg/Kg): 40** %
OD % Inhibition (dose 10 mg/Kg): 27%
OD % Inhibition (dose 30 mg/Kg): 30%

Cl.O=c1[nH]ncc2nc(-c3ccccc3)nc(Nc3ccc(CN4CCNCC4)cc3)c12 [Example 7, 2-phenyl-4-(4-(piperazin-1-ylmethyl)phenylamino)pyrimido[4,5-d]pyridazin-5(6H)-one hydrochloride]
Edema area % Inhibition (dose 3 mg/Kg): 41*** %
Edema area % Inhibition (dose 10 mg/Kg, hydrochloride): 45*** % and 53*** % and 30%
Edema area % Inhibition (dose 30 mg/Kg, hydrochloride): 68*** % and 74*** %
OD % Inhibition (dose 3 mg/Kg): 40*** %
OD % Inhibition (dose 30 mg/Kg, hydrochloride): 67*** % and 65*** %

O=C(O)C1CC12CCN(c1ccc(Nc3nc(-c4ccccc4)nc4cn[nH]c(=O)c34)cc1)CC2 (stereo not shown) [Example 19, 6-(4-(5-oxo-2-phenyl-5,6-dihydropyrimido[4,5-d]pyridazin-4-ylamino)phenyl)-6-azaspiro[2.5]octane-1-carboxylic acid]
Edema area % Inhibition (dose 3 mg/Kg): 48*** %
Edema area % Inhibition (dose 30 mg/Kg): 60*** %
OD % Inhibition (dose 3 mg/Kg): 53*** %
OD % Inhibition (dose 30 mg/Kg): 60*** %
